Data taken from PubChem BioAssay (NCI).
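Where inhibition never reached the appropriate level, the endpoint shown equals the highest concentration tested. Otherwise, values were interpolated linearly from a five-concentration, 48-hour dose response in 96-well plates. GI50: concentration for 50% inhibition of growth. At the TGI there is no net growth.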

What was measured:
Assay in all cases: NCI anticancer screen, dose series, 48 h
HL-60(TB) leukemia = system: HL-60(TB) leukemia
IGROV1 ovarian = system: IGROV1 ovarian
K-562 leukemia = system: K-562 leukemia
LOX IMVI melanoma = system: LOX IMVI melanoma
M14 melanoma = system: M14 melanoma
MDA-MB-231 breast = system: MDA-MB-231 breast
NCI-H23 lung = system: NCI-H23 lung
RXF 393 renal = system: RXF 393 renal
SK-MEL-28 melanoma = system: SK-MEL-28 melanoma
UACC-62 melanoma = system: UACC-62 melanoma

CC1OC(O[C@@H]2OC=C(C=O)[C@@]3(O)CC[C@H](C)[C@@H]23)C(O)C(O)C1O (stereo not given in full)
TGI (HL-60(TB) leukemia): > 100 µM
TGI (IGROV1 ovarian): > 100 µM
TGI (K-562 leukemia): > 100 µM
TGI (LOX IMVI melanoma): > 100 µM
TGI (M14 melanoma): > 100 µM
TGI (MDA-MB-231 breast): > 100 µM
TGI (NCI-H23 lung): > 100 µM
TGI (RXF 393 renal): > 100 µM
TGI (SK-MEL-28 melanoma): > 100 µM
TGI (UACC-62 melanoma): > 100 µM

O=C1CC(c2ccc(O)cc2)C2(O1)C(=O)OC(C(O)CO)C2O (stereo not given)
TGI (HL-60(TB) leukemia): > 100 µM
TGI (IGROV1 ovarian): > 100 µM
TGI (K-562 leukemia): > 100 µM
TGI (LOX IMVI melanoma): > 100 µM
TGI (M14 melanoma): > 100 µM
TGI (MDA-MB-231 breast): > 100 µM
TGI (NCI-H23 lung): > 100 µM
TGI (RXF 393 renal): > 100 µM
TGI (SK-MEL-28 melanoma): > 100 µM
TGI (UACC-62 melanoma): > 100 µM

CC[C@@H](C(=O)O)C1CC[C@H](C)C([C@@H](C)[C@H](O)[C@H](C)C(=O)[C@H](CC)C2O[C@]3(C=C[C@@H](O)[C@]4(CC[C@@](C)(C5CC[C@](O)(CC)[C@H](C)O5)O4)O3)[C@H](C)C[C@@H]2C)O1 (stereo not given in full)
GI50 (HL-60(TB) leukemia): 0.0406 µM
TGI (HL-60(TB) leukemia): 0.347 µM
GI50 (IGROV1 ovarian): 2.28 µM
TGI (IGROV1 ovarian): 64.8 µM
GI50 (K-562 leukemia): 0.306 µM
TGI (K-562 leukemia): 15.6 µM
GI50 (LOX IMVI melanoma): 0.641 µM
TGI (LOX IMVI melanoma): 13.6 µM
GI50 (M14 melanoma): 1.29 µM
TGI (M14 melanoma): 2.82 µM
GI50 (MDA-MB-231 breast): 0.863 µM
TGI (MDA-MB-231 breast): 5.51 µM
GI50 (NCI-H23 lung): 0.186 µM
TGI (NCI-H23 lung): 5.76 µM
GI50 (RXF 393 renal): 0.289 µM
TGI (RXF 393 renal): 3.76 µM
GI50 (SK-MEL-28 melanoma): 0.549 µM
TGI (SK-MEL-28 melanoma): 1.93 µM
GI50 (UACC-62 melanoma): 0.767 µM
TGI (UACC-62 melanoma): 2.15 µM

COc1ccc(/C(C#N)=C/c2ccccc2OC)cc1
GI50 (HL-60(TB) leukemia): 5.25 µM
TGI (HL-60(TB) leukemia): > 100 µM
GI50 (IGROV1 ovarian): 8.82 µM
TGI (IGROV1 ovarian): > 100 µM
GI50 (K-562 leukemia): 4.11 µM
TGI (K-562 leukemia): > 100 µM
GI50 (LOX IMVI melanoma): 6.6 µM
TGI (LOX IMVI melanoma): > 100 µM
GI50 (M14 melanoma): 4.8 µM
TGI (M14 melanoma): 60.9 µM
GI50 (MDA-MB-231 breast): 7.02 µM
TGI (MDA-MB-231 breast): > 100 µM
GI50 (NCI-H23 lung): 18.8 µM
TGI (NCI-H23 lung): > 100 µM
GI50 (RXF 393 renal): 5.4 µM
TGI (RXF 393 renal): 27.4 µM
GI50 (SK-MEL-28 melanoma): 17.5 µM
TGI (SK-MEL-28 melanoma): > 100 µM
GI50 (UACC-62 melanoma): 7.36 µM
TGI (UACC-62 melanoma): > 100 µM

CCCCCCCCCCC(C(=O)O)C1(C(=O)O)CCC(=O)O1 (stereo not given)
TGI (HL-60(TB) leukemia): > 100 µM
TGI (IGROV1 ovarian): > 100 µM
TGI (K-562 leukemia): > 100 µM
TGI (LOX IMVI melanoma): > 100 µM
TGI (M14 melanoma): > 100 µM
TGI (MDA-MB-231 breast): > 100 µM
TGI (NCI-H23 lung): > 100 µM
TGI (RXF 393 renal): > 100 µM
TGI (SK-MEL-28 melanoma): > 100 µM
TGI (UACC-62 melanoma): > 100 µM

COc1ccc(OC)c(/C=C2\SC(=S)NC2=O)c1
GI50 (HL-60(TB) leukemia): 58 µM
TGI (HL-60(TB) leukemia): > 100 µM
GI50 (IGROV1 ovarian): 31.2 µM
TGI (IGROV1 ovarian): > 100 µM
GI50 (K-562 leukemia): 42.5 µM
TGI (K-562 leukemia): > 100 µM
GI50 (LOX IMVI melanoma): 26.6 µM
TGI (LOX IMVI melanoma): > 100 µM
GI50 (M14 melanoma): 30.7 µM
TGI (M14 melanoma): > 100 µM
GI50 (MDA-MB-231 breast): 14.2 µM
TGI (MDA-MB-231 breast): 43.2 µM
GI50 (NCI-H23 lung): 23.1 µM
TGI (NCI-H23 lung): 68.6 µM
GI50 (RXF 393 renal): 18.4 µM
TGI (RXF 393 renal): 64.8 µM
GI50 (SK-MEL-28 melanoma): 42.4 µM
TGI (SK-MEL-28 melanoma): > 100 µM
GI50 (UACC-62 melanoma): 17.7 µM
TGI (UACC-62 melanoma): 53.4 µM

COC(=O)[C@@]1(C)CC[C@]2(C)CC[C@]3(C)C4=CC=C5C(=CC(=O)C(O)=C5C)[C@]4(C)[C@@H](O)C[C@@]3(C)[C@@H]2C1
GI50 (HL-60(TB) leukemia): 9.68 µM
TGI (HL-60(TB) leukemia): 28.9 µM
GI50 (IGROV1 ovarian): 6.73 µM
TGI (IGROV1 ovarian): 19.1 µM
GI50 (K-562 leukemia): 4.25 µM
TGI (K-562 leukemia): 20.9 µM
GI50 (LOX IMVI melanoma): 10.4 µM
TGI (LOX IMVI melanoma): 21.3 µM
GI50 (M14 melanoma): 9.74 µM
TGI (M14 melanoma): 22.2 µM
GI50 (MDA-MB-231 breast): 10.2 µM
TGI (MDA-MB-231 breast): 21.8 µM
GI50 (NCI-H23 lung): 13.5 µM
TGI (NCI-H23 lung): 28.4 µM
GI50 (RXF 393 renal): 11.3 µM
TGI (RXF 393 renal): 22.9 µM
GI50 (SK-MEL-28 melanoma): 9.43 µM
TGI (SK-MEL-28 melanoma): 19.7 µM
GI50 (UACC-62 melanoma): 8.59 µM
TGI (UACC-62 melanoma): 18.9 µM
